From US20230288402A1, “MOLECULES TARGETING RIBOSOMAL PROTEIN RPL35/UL29 FOR USE IN THE TREATMENT OF DISEASES, IN PARTICULAR EPIDERMOLYSIS BULLOSA (EB)” (KBHB CONSULT GMBH, priority 2020, published 2023)

What was measured:
Lamb3-PTC-FF = test: In-vivo dual luciferase reporter read-out in yeast cells, Lamb3-PTC-FF reporter; format: cell-based; details: normalized to untreated control
Description: (§1) Luciferase read-out data are represented normalized to the individual luciferase reporter (Ren, Lamb3-FF, Lamb3-PTC-FF) read-outs in the untreated state set at 100% (normalizer); for renilla control—the untreated state—mean and standard deviation of quantifications from twelve biological replicates, each with six technical replicates (72 reads), are shown. For Lamb3-FF control—the untreated state—mean and standard deviation of quantifications from six biological replicates, each with six technical replicates (36 reads), are shown. For Lamb3-PTC control—the untreated state—mean and standard deviation of quantifications from two biological replicates, each with six technical replicates (12 reads), are shown. Quantification upon treatment with ART and ATZ, respectively, for both, Ren (216 reads) and Lamb3-FF (105 reads), is shown by combining read-out data obtained by treatment with 2, 4, and 10 μM ART and ATZ (treated), respectively, and is normalized to the respective untreated control (normalizer). For luciferase reporter read-outs of Lamb3-PTC-FF treated with 2 μM, 4 μM and 10 μM ART and 2, 4, and 10 nM ATZ, respectively, mean and standard deviation of quantification from two biological replicates for ART (12 reads) and three biological replicates for ATZ (18 reads), with six technical replicates each, are shown normalized to Lamb3-PTC-FF control.
(§2) Luciferase read-out data are represented normalized to the individual luciferase reporter (Lamb3-FF, Lamb3-PTC-FF, FF, and FF-PTC) of a respective control in the untreated state set at 100% (normalizer). Twelve biological replicates (n=12) for all detections. Normalization for treatment is shown, additional controls were run, but are not shown. Dosages: ART 2 μM, ATZ 1.6 nM and erythromycin 4 μM, respectively. Combination treatment […] are 50 nM and 0.08 nM, respectively, i.e. 40-fold and 20-fold less than individually applied compounds.
The inventors opted to first test small molecule action in the versatile yeast cell factory, employing the dual luciferase reporter system used in the original 2-SSRS (Bauer et al., 2013).

Lamb3-FF = test: In-vivo dual luciferase reporter read-out in yeast cells, Lamb3-FF reporter; format: cell-based; details: for protein expression level of Lamb3-FF luciferase reporter upon small molecule treatment: combined read-outs of 2, 4 and 10 μM; for increase for Lamb3-FF protein expression: not significant
Description: as §1
Obtaining evidence for drug directed manipulation of rpL35 to selectively increase full-length Lamb3-PTC expression has to be tested in functional assays. The inventors opted to first test small molecule action in the versatile yeast cell factory, employing the dual luciferase reporter system used in the original 2-SSRS (Bauer et al., 2013).

[1] = system: renilla luciferase reporter; test: In-vivo dual luciferase reporter read-out in yeast cells, renilla luciferase reporter; format: cell-based; details: combined read-outs of 2, 4 and 10 μM
Description: as §1, with “control. […]” for “control.”

Lamb3PTC = test: Hela in vitro translation assays; format: biochemical, human
human rpL35 [2] = target: T1, human rpL35 (Homo sapiens, UniProt P42766); details: cited from earlier work
human rpL35 [3] = target: T1, human rpL35; test: NMR titration series (2D 1H,15N HSQC) of 15N rpL35-His6 with ligand; format: binding; set-up: MBP (N, cleaved yes); made in house; host or cells: E. coli BL21; details: for number of amide signals with significant chemical shift perturbations: HSQC spectrum upon ligand addition; for binding to human rpL35 by NMR titration: changes in NMR spectra in presence of small molecule
Protocol: NMR experiments were recorded at 25° C. (298K) on a 700 MHz Bruker Ascend spectrometer equipped with cryogenically cooled TCI probe. All spectra were processed using Topspin 3.5 and analyzed with CARA 1.8.4.2. (Keller R. Optimizing the Process of Nuclear Magnetic Resonance Spectrum Analysis and Computer Aided Resonance Assignment. ETH Zurich; 2004) and NMRFAM-Sparky (Lee W, Tonelli M, Markley J L. NMRFAM-SPARKY: enhanced software for biomolecular NMR spectroscopy. Bioinformatics. 2015 Apr. 15; 31(8):1325-7). Concentration of ^15N labeled rpL35-His6 ranged from 200 to 400 μM and the sample was measured in a salt tolerant susceptibility matched slot tube (Shigemi™) with total volume of 170 μl.
NMR spectroscopy is able by comparative analysis of protein vs. protein+small molecule binder to asses binding sites of the small molecule on the protein. In this initial study the affinity of rpL35 towards artesunate and atazanavir was established by a simple titration series in which the inventors have been tracking perturbations to chemical shifts and peak heights in the 2D ^1H, ^15N HSQC spectrum. Aliquots of artesunate/atazanavir were added into the solution of ^15N rpL35 of which 2D 1H, ^15N HSQC spectrum was recorded immediately upon ligand addition. Perturbations of protein chemical shifts in ^15N HSQC spectrum are indicative of changes to the chemical environment of amide groups caused by binding of a ligand to the protein target.
Following the artesunate-protein rpL35 complex titration, the inventors have recorded 3D spectra of the same sample using ^15N NOESY-HSQC, ^15N TOCSY-HSQC, HNHA pulse sequences. The inventors extracted chemical shifts of amide ^1H, ^15N, HA, HB from the above mentioned spectra, and compared measured values with the average chemical shifts of common amino acids in Biological Magnetic resonance Data Bank (BMRB; http://www.bmrb.wisc.edu). In the 3D ^1H, ^15N NOESY-HSQC the inventors focused also on the presence of water signal which can indicate if the amino group is solvent accessible. […] However, collection of the basic set of chemical shifts mentioned earlier allowed the inventors to estimate amino acid type since many of them have quite characteristic values (e. g. alanine, threonine, and glycine). 3D ^15N TOCSY-HSQC helped the inventors to differentiate between amino acid types which have similar NH chemical shifts, such as leucine, lysine, valine. […] Using this approach the inventors obtained a set of protein signals which changed their position in 2D ^1H^15N-HSQC spectrum upon interaction with the ligand (artesunate, atazanavir) and information on the most probable amino acid type. […]

FF-PTC = test: In-vivo dual luciferase reporter read-out in yeast cells, FF-PTC reporter; format: cell-based; details: erythromycin 4 μM; indicator of lack of specific activity
Protocol: as §2

[4] = system: Lamb3 protein with the R635XPTC mutation; details: very high, therapeutically not applicable dose; cited from earlier work
laminin 332 = details: primary keratinocytes from three GS-JEB patients; cited from earlier work

Row | Compound | increase in full-length Lamb3-PTC-FF protein expression (Lamb3-PTC-FF; treatment with 2 μM) | protein expression level of Lamb3-FF luciferase reporter upon small molecule treatment (Lamb3-FF) | increase for Lamb3-FF protein expression (Lamb3-FF; treatment with 4 μM) | increase for Lamb3-FF protein expression (Lamb3-FF; treatment with 10 μM) | protein expression level of renilla luciferase reporter upon small molecule treatment [1] | Lamb3PTC expression (Lamb3PTC) | binding to human rpL35 in biotinylation assay (human rpL35 [2]) | number of amide signals with significant chemical shift perturbations (human rpL35 [3]) | binding to human rpL35 by NMR titration (human rpL35 [3]) | increase in full-length Lamb3-PTC-FF protein expression (Lamb3-PTC-FF; treatment with 4 μM) | increase in full-length Lamb3-PTC-FF protein expression (Lamb3-PTC-FF; treatment with 10 μM) | FF-PTC reporter read-out upon treatment (FF-PTC) | Lamb3 protein expression relative to normal level [4] | induction of functional laminin 332 (laminin 332)
1 | C[C@H]1[C@H](OC(=O)CCC(=O)O)O[C@@H]2O[C@@]3(C)CC[C@H]4[C@H](C)CC[C@@H]1[C@@]24OO3 [artesunate] | 2.2 fold | no significant increase | 1,1 fold | 1.2 fold | no significant increase | increase | binder of human rpL35 | 10 | bind human rpL35 protein at several possible binding pockets | – | – | – | – | –
2 | COC(=O)N[C@H](C(=O)N[C@@H](Cc1ccccc1)[C@@H](O)CN(Cc1ccc(-c2ccccn2)cc1)NC(=O)[C@@H](NC(=O)OC)C(C)(C)C)C(C)(C)C [atazanavir] | 1.8 fold | no significant increase | – | – | no significant increase | increase | – | 5 | bind human rpL35 protein at several possible binding pockets | 1.9 fold | 2.2 fold | – | – | –
3 | CC[C@H]1OC(=O)[C@H](C)[C@@H](O[C@H]2C[C@@](C)(OC)[C@@H](O)[C@H](C)O2)[C@H](C)[C@@H](O[C@@H]2O[C@H](C)C[C@H](N(C)C)[C@H]2O)[C@](C)(O)C[C@@H](C)C(=O)[C@H](C)[C@@H](O)[C@]1(C)O [erythromycin] | – | – | – | – | – | – | – | – | – | – | – | increase | – | –
4 | gentamicin | – | – | – | – | – | – | – | – | – | – | – | – | 30% | induced functional laminin 332
